Reference: publication PMC11714206, “Massively Parallel Screening of Toll/Interleukin‐1 Receptor (TIR)‐Derived Peptides Reveals Multiple Toll‐Like Receptors (TLRs)‐Targeting Immunomodulatory Peptides” (Advanced Science, 2024)
One block for each sequence: values may come before it.

Target: T1, MyD88^TIR (Homo sapiens, UniProt Q99836)
T1 construct: MyD88 (residues 148–296); 6xHis; made in house; host or cells: E. coli BL21 (DE3)
Assay: T‐Surf phage library (P8 and P3) selection against MyD88^TIR, four rounds, NGS read counts
Format: binding
Settings: for P3_MyD88 Rank (after) / P3_MyD88 Rank (before): P3 library; for Population: 4th round of selection against MyD88 TIR, share of NGS reads; for P8_MyD88 Rank (after) / P8_MyD88 Rank (before): P8 library
How it was run: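 Coat TIR domain 5 µg mL^−1 overnight; block 0.2% BSA/PBS 1 h, 4 °C; add phage library 1 h, RT; wash ×4 PBS/0.5% Tween‐20; elute 100 mM HCl, neutralize Tris; amplify in TG1, PEG‐precipitate. Repeat to round 4; barcode PCR, NovaSeq, count reads.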

[1] = P3_MyD88: rank by count after grouping
[2] = P3_MyD88: rank by count before grouping
[3] = 4R selection against MyD88, rank after grouping
[4] = 4R selection against MyD88, rank before grouping
[5] = P3_MyD88 pool: P3 T-Surf phage library
[6] = P8_MyD88: rank by count after grouping
[7] = P8_MyD88: rank by count before grouping
[8] = P8_MyD88: rank by NGS read count after grouping
[9] = P8_MyD88: rank by NGS read count before grouping
[10] = selection against MyD88 TIR, rank by count after grouping
[11] = selection against MyD88 TIR, rank by count before grouping
[12] = selection against MyD88, rank after grouping
[13] = selection against MyD88, rank before grouping
[14] = P8_MyD88 pool: P8 T-Surf phage library
[15] = selection against MyD88, rank by count after grouping
[16] = selection against MyD88, rank by count before grouping

T1 sequence (Q99836 148-296): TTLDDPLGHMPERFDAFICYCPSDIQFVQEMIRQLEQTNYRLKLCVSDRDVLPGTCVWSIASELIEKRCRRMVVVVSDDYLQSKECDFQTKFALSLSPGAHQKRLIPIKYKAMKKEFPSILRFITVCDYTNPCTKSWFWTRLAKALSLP

Sequence: NQWRNALTAAAYMSCR
Rank (after) [1]: 463 | Rank (before) [2]: 3492

Sequence: KNLLNELVSKNIRTFM
Population [5]: 0.00466%

Sequence: NQWRNALTAAANLSGC
Population [5]: 0.00291%

Sequence: DHHLDLPRGKAIKPEFW
P3_MyD88 Rank (after) [10]: 241 | P3_MyD88 Rank (before) [11]: 951

Sequence: MVGGDTFHDFLDIISM
P8_MyD88 Rank (after) [3]: 655 | P8_MyD88 Rank (before) [4]: 3677

Sequence: NERGHVWSSKANSLVG
P3_MyD88 Rank (after) [3]: 615 | P3_MyD88 Rank (before) [4]: 3454

Sequence: DPQVLDWYYERLVRLF
P8_MyD88 Rank (after) [3]: 626 | P8_MyD88 Rank (before) [4]: 2646

Sequence: EDSIFYAVSSGALDEP
P8_MyD88 Rank (after) [15]: 697 | P8_MyD88 Rank (before) [16]: 3174

Sequence: YASYDDNDYYWVTHVLLRPM
Rank (after) [6]: 139 | Rank (before) [7]: 255

Sequence: NQWRNALTAAANLSLS
P3_MyD88 Rank (after) [3]: 675 | P3_MyD88 Rank (before) [4]: 3507

Sequence: MDYLLRILHSSNFTTF
Rank (after) [6]: 102 | Rank (before) [7]: 105 | Population [14]: 0.022%

Sequence: YLKWGYPWFWDRLRFA
P8_MyD88 Rank (after) [12]: 571 | P8_MyD88 Rank (before) [13]: 2084

Sequence: FHGDELRDNFIRYLVW
P8_MyD88 Rank (after) [10]: 252 | P8_MyD88 Rank (before) [11]: 421

Sequence: SELRVVDDGSVSPPNL
P3_MyD88 Rank (after) [12]: 570 | P3_MyD88 Rank (before) [13]: 3040

Sequence: HWIDWEYFVALKIIL
Rank (after) [6]: 427 | Rank (before) [7]: 1236

Sequence: KWLWEKRTCGHSRNTA
P3_MyD88 Rank (after) [15]: 676 | P3_MyD88 Rank (before) [16]: 3585

Sequence: TSTWALDELWLILEQR
Population [14]: 0.0262%

Sequence: YASYDDNDYYWVTHVLLRH
Rank (after) [8]: 997 | Rank (before) [9]: 1799

Sequence: ELDFASNMEQFWDRLYY
Rank (after) [8]: 935 | Rank (before) [9]: 3177

Sequence: SSFREGLWRLLELRKN
P3_MyD88 Rank (after) [3]: 588 | P3_MyD88 Rank (before) [4]: 3169

Sequence: GFLYQALARDGFKIFM
Rank (after) [1]: 426 | Rank (before) [2]: 1811

Sequence: LGYHWIVWEYLVGIKD
P8_MyD88 Rank (after) [3]: 652 | P8_MyD88 Rank (before) [4]: 3245

Sequence: WMRALAYIVNIVGESS
P8_MyD88 Rank (after) [10]: 268 | P8_MyD88 Rank (before) [11]: 529

Second part, the sequence after the results:

P3_MyD88 Rank (after) [3]: 642 | P3_MyD88 Rank (before) [4]: 1768
Sequence: VDPTHIRNQTGRYEKA

Rank (after) [6]: 402 | Rank (before) [7]: 1870
Sequence: YASSSWYLDELLQIA

Rank (after) [8]: 993 | Rank (before) [9]: 2369
Sequence: DFLKWDNEAIMIKKIA

P8_MyD88 Rank (after) [12]: 545 | P8_MyD88 Rank (before) [13]: 3073
Sequence: DRVWDYLLPNLEGQAG

P8_MyD88 Rank (after) [10]: 285 | P8_MyD88 Rank (before) [11]: 543
Sequence: YSFLSHLAAAFELHGI

Population [14]: 0.0108%
Sequence: LVYHWIDWEYFVGIED

Rank (after) [6]: 158 | Rank (before) [7]: 175 | Population [14]: 0.00809%
Sequence: QWALEELRLIMELHSV

P8_MyD88 Rank (after) [10]: 209 | P8_MyD88 Rank (before) [11]: 1112
Sequence: DPQDLEWFYERLFSLI

P8_MyD88 Rank (after) [15]: 730 | P8_MyD88 Rank (before) [16]: 3235
Sequence: LGYHWVDWEDLLSIEE

P8_MyD88 Rank (after) [10]: 194 | P8_MyD88 Rank (before) [11]: 252
Sequence: FFWMQLRSLLGTPGGL

P8_MyD88 Rank (after) [12]: 540 | P8_MyD88 Rank (before) [13]: 1760
Sequence: YAASTWWHTVLARLMG

P3_MyD88 Rank (after) [3]: 608 | P3_MyD88 Rank (before) [4]: 2185
Sequence: EWNRKQKRPDQKERLQ

Rank (after) [8]: 1028 | Rank (before) [9]: 3310
Sequence: LGYHWKEWEHFVGIED

P8_MyD88 Rank (after) [12]: 517 | P8_MyD88 Rank (before) [13]: 3491
Sequence: PQDQEWFYERMVSLIL

Rank (after) [6]: 446 | Rank (before) [7]: 2849
Sequence: DPQDLEWFYERLVILF

Rank (after) [6]: 182 | Rank (before) [7]: 216
Sequence: DVLYYALIDAGIRVFR

Rank (after) [8]: 950 | Rank (before) [9]: 2507
Sequence: DYASSSWALDVLWNIF

Rank (after) [1]: 186 | Rank (before) [2]: 1250
Sequence: NELVHVWSSKANSLVGQ

P8_MyD88 Rank (after) [12]: 490 | P8_MyD88 Rank (before) [13]: 1403
Sequence: WALVVLLQILHARELF

P3_MyD88 Rank (after) [15]: 685 | P3_MyD88 Rank (before) [16]: 2792
Sequence: HLLKEFDKKLIPRLK

P8_MyD88 Rank (after) [3]: 610 | P8_MyD88 Rank (before) [4]: 2690
Sequence: DPQDLARSYERLVRLF

Rank (after) [1]: 143 | Rank (before) [2]: 2283
Sequence: LVAHEISNNMKIFATI

Population [5]: 0.00437%
Sequence: SENYATSPWALDELVP

P8_MyD88 Rank (after) [3]: 641 | P8_MyD88 Rank (before) [4]: 2402
Sequence: DWVWVYLLPNLEGPEG

P3_MyD88 Rank (after) [3]: 611 | P3_MyD88 Rank (before) [4]: 2194
Sequence: EAFAVHENISKKTLK

P3_MyD88 Rank (after) [12]: 540 | P3_MyD88 Rank (before) [13]: 3681
Sequence: KEPERYQFAIPERDFP

P8_MyD88 Rank (after) [3]: 599 | P8_MyD88 Rank (before) [4]: 1388
Sequence: WVFASNLETFWARLYY

P3_MyD88 Rank (after) [12]: 571 | P3_MyD88 Rank (before) [13]: 2323
Sequence: LGTHEISKEMKIFATI
